Measured values published in US11369593B2 (Texas Tech University System, priority 2017, dated 2022).

Columns and labels:
PC12 cells [1] = test: Serum starvation-induced apoptosis in PC12 cells, cell viability; assay type: cell-based; conditions: Rattus norvegicus, PC-12, serum starvation-induced apoptosis, PC12 cells; for viability at 1 µM: 1 μM compound, vehicle 55.04 ± 8.99, read-out: % Viability 1 μM; for viability at 3 µM: 3 μM compound, read-out: % Viability 3 μM; for viability at 10 µM: 10 μM compound, read-out: % Viability 10 μM; for viability at 30 µM: 30 μM compound, read-out: % Viability 30 μM
PC12 cells [2] = test: Etoposide-induced apoptosis in PC12 cells, cell viability; assay type: cell-based; conditions: for viability at 0.1 µM / viability at 0.3 µM / viability at 1 µM / viability at 3 µM / viability at 10 µM / viability at 30 µM: Rattus norvegicus, PC-12, etoposide-induced apoptosis; for viability at 0.1 µM: 0.1 μM compound, vehicle 52.1 ± 7.32; for viability at 0.3 µM: 0.3 μM compound; for viability at 1 µM: 1 μM compound, read-out: % Viability 1 μM; for viability at 3 µM: 3 μM compound, read-out: % Viability 3 μM; for viability at 10 µM: 10 μM compound, read-out: % Viability 10 μM; for viability at 30 µM: 30 μM compound, read-out: % Viability 30 μM; for protective activity in WT PC12 etoposide assay: WT PC12 cells
primary neurons = conditions: cited from earlier work
[3] = test system: CLN3 knockdown mouse fibroblasts; test: Protective effect in CLN3 knock down mouse fibroblasts; assay type: cell-based; conditions: FIG. 3B
Description: (§1) FIGS. 3A and 3B show the neuroprotective effect of selected compounds in phenotypic cell lines. In FIG. 3A, the protective effect is shown in siRNA CLN3 knock down PC12 cells. In FIG. 3B the protective effect is shown in wild-type (WT) and CLN3 knock down mouse fibroblasts. Values are represented as mean±SD. *P<0.05, **p<0.01, ***p<0.001 compared to vehicle control, unpaired student t test.
(§2) Protective Effect in Phenotypic Cell Lines. […] The inventors screened a number of compounds in both neuron-like CLN3 siRNA knock down PC12 cells (FIG. 3A) and CLN3 knockdown mouse fibroblasts (FIG. 3B) as phenotypic models of JNCL. […] FIGS. 3A and 3B show the neuroprotective effect of selected compounds in phenotypic cell lines. In FIG. 3A, the protective effect is shown in siRNA CLN3 knock down PC12 cells. In FIG. 3B the protective effect is shown in wild-type (WT) and CLN3 knock down mouse fibroblasts. Values are represented as mean±SD. *P<0.05, **p<0.01, ***p<0.001 compared to vehicle control, unpaired student t test. […] Selected derivatives show greater protective effect than flupirtine in patient lympoblast cells in CLN1, CLN2, CLN3, CLN6 and CLN8 disease (FIGS. 4A to 4E). FIGS. 4A to 4E show the percentage of patient lymphoblast cells (%), using Trypan Blue dye with Flupirtine (20 μM, vehicle %1 EtOH), drug 3 (20 μM, vehicle %1 EtOH), drug 5 (50 μM, vehicle %4 DMSO) or drug 6 (20 μM, vehicle %4 DMSO) at 24 h. CLN1 (FIG. 4A), CLN2 (FIG. 4B), CLN3 (FIG. 4C), CLN6 (FIG. 4D), and CLN8 (FIG. 4E).

PC12 cells [4] = test: ROS in PC12 cells, CellROX green / DAPI staining after H2O2; assay type: cell-based; conditions: 400 μM H2O2 for 4 hours, FIG. 5A
Procedure: PC12 cells stained with CellROX and DAPI-blue nuclear stain. Greater intensity of green fluorescence indicates greater levels of ROS. Visualized through a microscope (40× magnification, bar=100 μM).
While flupirtine and retigabine are known antioxidants the inventors have shown (FIGS. 5A and 5B) that neuroprotective derivatives operate by a different mechanism of action. […] PC12 cells stained with CellROX and DAPI-blue nuclear stain. Greater intensity of green fluorescence indicates greater levels of ROS. Visualized through a microscope (40× magnification, bar=100 μM).

[5] = test system: CLN3 siRNA knock down PC12 cells; test: Protective effect in siRNA CLN3 knock down PC12 cells; assay type: cell-based; conditions: FIG. 3A
Description: as §1, §2

IMR-90-derived neurons = assay type: cell-based, human
Description: The disclosed technology encompasses multiple derivatives of both flupirtine and retigabine. […] The inventors provide further insight into the derivatives from both original molecules. […] By way of explanation, and in no way a limitation of the present invention, the inventors have shown that the derivatives are active in two ways: they (1) upregulate expression of the anti-apoptotic protein Bcl-2 and ceramide pathway synthesis enzymes, and (2) activate autophagy.

| SMILES | viability at 1 µM (PC12 cells [1]) [%] | viability at 3 µM (PC12 cells [1]) [%] | viability at 10 µM (PC12 cells [1]) [%] | viability at 30 µM (PC12 cells [1]) [%] | viability at 0.1 µM (PC12 cells [2]; PC12 cells) [%] | viability at 0.3 µM (PC12 cells [2]; PC12 cells) [%] | viability at 1 µM (PC12 cells [2]; PC12 cells) [%] | viability at 3 µM (PC12 cells [2]; PC12 cells) [%] | viability at 10 µM (PC12 cells [2]; PC12 cells) [%] | viability at 30 µM (PC12 cells [2]; PC12 cells) [%] | concentration showing protective activity against Abeta 25-35 apoptotic cell death (primary neurons) [µg/mL] | protective activity [3] | amelioration of reactive oxygen species (ROS) (PC12 cells [4]) | protective activity [5] | protective activity in WT PC12 etoposide assay (PC12 cells [2]) | activity in iPSC/IMR-90-derived neurons (IMR-90-derived neurons; 15 ug/mL etoposide for 36 hours, FIG. 2) | concentration providing protection from etoposide-induced cell death (PC12 cells [2]; PC12 cells) [µM] | concentration with neuroprotective activity (as low as) (IMR-90-derived neurons; human IMR-90-derived neurons) [µM] |
| --- | --- | --- | --- | --- | --- | --- | --- | --- | --- | --- | --- | --- | --- | --- | --- | --- | --- | --- |
| CCOC(=O)Nc1ccc(NCc2ccc(F)cc2)nc1N [NK-1-4, Ethyl (2-amino-6-((4-fluorobenzyl)amino)pyridin-3-yl)carbamate, reference compound] | 85.4 ± 14 | 82 ± 14.5 | 81.5 ± 13 | 89.9 ± 17.1 | 67 ± 5.88 | 64.4 ± 9.35 | 73.2 ± 13.9 | 78.1 ± 12.9 | 76.9 ± 17.4 | 71.3 ± 18 | 1 | protective activity | do ameliorate ROS | protective activity | – | – | – | – |
| CCOC(=O)Nc1ccc(NCc2ccc(Cl)cc2)nc1N [NK-4-3, Ethyl (2-amino-6-((4-chlorobenzyl)amino)pyridin-3-yl)carbamate] | 78 ± 9.61 | 79.3 ± 5.5 | 86.5 ± 11.5 | 86.6 ± 5.32 | – | – | 65.7 ± 16.2 | 64.3 ± 4.28 | 52.6 ± 10.3 | 41.5 ± 6.14 | – | – | – | – | less active than compounds NK-10-1 and NK-12-1 | less active | – | – |
| Nc1nc(NCc2ccc(F)cc2)ccc1NC(=O)OCc1ccccc1 [NK-10-1, Benzyl 6-(4-fluorobenzylamino)-2-aminopyridin-3-ylcarbamate] | 93.4 ± 12.4 | 90.4 ± 11.2 | 92.7 ± 12.8 | 96.1 ± 15.3 | – | – | 60.1 ± 7.91 | 82 ± 4.43 | 66.2 ± 6.26 | 57.4 ± 2.24 | – | greater activity than flupirtine | no amelioration of reactive oxygen species (ROS) | greater activity than flupirtine | greater neuroprotective activity | – | – | – |
| C=CCOC(=O)Nc1ccc(NCc2ccc(F)cc2)nc1N [NK-12-1, Allyl 6-(4-fluorobenzylamino)-2-aminopyridin-3-ylcarbamate] | 108 ± 10.3 | 88.6 ± 8.26 | 82.2 ± 11.8 | 92.6 ± 12.3 | – | – | 65.5 ± 8.19 | 86.8 ± 9.05 | 67.5 ± 22.6 | 45.2 ± 8.92 | – | greater activity than flupirtine | no amelioration of reactive oxygen species (ROS) | greater activity than flupirtine | greater neuroprotective activity | – | – | – |
| CCOC(=O)Nc1ccc(NCc2ccc(C(F)(F)F)cc2)nc1N [NK-40-3, Ethyl (2-amino-6-((4-(trifluoromethyl)benzyl)amino)pyridin-3-yl)carbamate] | – | – | – | – | 85.8 ± 11.8 | 109 ± 17.3 | 82.7 ± 8.82 | 71.5 ± 4.99 | 97.3 ± 22.8 | 106 ± 15.8 | – | – | – | – | – | – | 0.1 | 0.1 |
